“Also recorded” adds a separate entry of the source.
Key:
Gottingen Minipigs = assay: 4-week dermal toxicity study in Gottingen Minipigs; conditions: twice daily, 29 consecutive days, 2.1 mL
Method: Observations for morbidity, mortality, injury, and the availability of food and water were conducted twice daily for all animals. Clinical observations were conducted weekly.

[1] = tested on: SkBr-3 (breast adenocarcinoma cancer, Her2 overexpressed); assay: Cell growth / viability assay, SkBr-3; assay type: cell-based
Method: (§1) The drug treatment period was usually three days. At the end of the three days, the background OD of the 96-well plate was read at 280 nm, before 20 μL of the “Substrate Cell Titer 96 Aqueous One Solution Reagent” (Promega) was added to each well. […] The net OD increase was calculated by subtracting the pre-substrate OD reading. The impact of the drug on the cells was calculated by comparing the OD at different concentrations in relation to the OD of the control wells (without the drug). The results of the Net OD as a function of drug concentration was plotted and used to determine ED50 values.

HEKa cells [2] = assay: Antibody microarray (Panorama XP725) of calcitriol-treated HEKa cells; assay type: cell-based, human; conditions: 24-hour
Method: Briefly, the treated HEKa cells were first harvested and then extracted to obtain a soluble protein supernatant. Two portions of the extracted protein sample (˜1 mg total) from each sample (at 1 mg/mL) were each labeled with fluorescent dye (Cy3 and Cy5, respectively). The excess dye was removed from the protein sample, and the resulting labeled protein samples were used for microarray incubation. To determine the expression level of a particular target protein at a later time point (e.g., at hour 6 or 24) relative to that at an earlier time point (e.g., at hour 3), the samples were labeled by different labels (e.g., 3-hour extract labeled with Cy3, 6-hour or 24-hour extract labeled with Cy5). Then the two labeled samples containing equal amounts of total protein were mixed (e.g., Cy3-labeled 3-hour sample is mixed with Cy5-labeled 6-hour or 24-hour samples, respectively). After incubation with the microarray chip (according to manufactures recommended protocols), the chips were washed and dried. The microarrays were then scanned with a fluorescent laser scanner to measure the relative fluorescence intensity of the Cy3 and Cy5 dyes. If the amount of a particular type of target protein increased (or decreased) over time, more (or less) of the dye associated with the later time point (e.g., Cy5) will be retained by the microarray. […]

HEKa cells [3] = assay: HEKa keratinocyte growth / viability assay, with and without chemotherapy drugs; assay type: cell-based, human
Method: All experiments were conducted in 96-well plate format. Each well contained the same amount of HEKa cells in about 100 μL of media (usually between 2,000-5,000 cell/well). Calcitriol was dissolved in ethanol to make a stock solution. The stock solution was serially diluted 1:2 in the growth media, covering a range of between 4.0 μg/mL to about 15.5 ng/mL (9 test concentrations). […] All experiments were conducted in duplicates.
In these experiments, a selected commercial drug was serially diluted, starting at a concentration 4-times higher than the final desired concentration for cell incubation.
The drug treatment period was usually three days. At the end of the three days, the background OD of the 96-well plate was read at 280 nm, before 20 μL of the “Substrate Cell Titer 96 Aqueous One Solution Reagent” (Promega) was added to each well. The plate was returned to the 37° C. incubator, and its OD at 490 nm was read each hour until an OD of approximately 1.5 was reached. The net OD increase was calculated by subtracting the pre-substrate OD reading.
The impact of the drug on the cells was calculated by comparing the OD at different concentrations in relation to the OD of the control wells (without the drug). The results of the Net OD as a function of drug concentration was plotted and used to determine ED50 values.
Then these pretreated cells were utilized to set up the cell based assay.
Three commonly used chemotherapy drugs (doxorubicin, cisplatin and erlotinib) were selected to evaluate calcitriol treated cells. […] In these experiments, the commercial drugs were serially diluted, starting at a concentration 4-times higher than the final desired concentration for cell incubation.

SKMEL-28 (melanoma) = assay: Cell growth / viability assay, SKMEL-28; assay type: cell-based
Method: as §1

[4] = tested on: Long Evans and Sprague Dawley rats; assay: Chemotherapy-induced alopecia (CIA) in the neonatal rat, topical calcitriol formulation; assay type: in vivo
Method: Specifically, Long Evans and Sprague Dawley rats with pups were purchased from Harlan Laboratories, Inc. They were housed and fed according to applicable animal handling rules and regulations. Pups were allowed to acclimate for 48 hours prior to the start of experiments. […] Rats were isolated from their littermates and mother for 6-hour periods of time. Subsequently, the treated area was cleaned with soap and water and pups were returned to their litters. On day 13, rats either received etoposide (1.5 mg/kg daily for 3 days) or cyclophosphamide (CTX) (37.5 mg/kg once) or combination cyclophosphamide (35 mg/kg once) and doxorubicin (2.5 mg/kg daily for 3 days). All chemotherapies were purchased from Sigma and were given intraperitoneally (i.p.) in a total volume of 0.1 mL. Alopecia was recorded 10 days after the last dose of chemotherapy.

BALB/c mice = conditions: cited from earlier work
[5] = Preliminary animal toxicology study; assay type: in vivo; conditions: dose of about 100 μg
[6] = 0.1 μg/mL calcitriol, low dosage levels
[7] = Long Evans rats, 0.2 μg total dose

C=C1/C(=C\C=C2/CCC[C@]3(C)[C@@H]([C@H](C)CCCC(C)(C)O)CC[C@@H]23)C[C@@H](O)C[C@@H]1O [Calcitriol, (5Z,7E)-9,10-secocholesta-5,7.10(19Hriene-1 a,33.25-triol]
no-observed-adverse-effect-level (NOAEL) (Gottingen Minipigs): 10.31 µg/mL | effect of calcitriol on cell growth [1]: no significant growth promoting or growth inhibiting effects | effect of calcitriol on the cytotoxic effect of Doxorubicin [1]: does not appreciably alter; also recorded: did not appear to appreciably alter | proteins significantly upregulated (number) (HEKa cells [2]): about fifty proteins | protective effect against 5-FU (HEKa cells [3]; 0.1 μg/mL calcitriol): protects; also recorded: mild protective effect; also recorded: some levels of protection | protective effect against doxorubicin (HEKa cells [3]; 0.1 μg/mL calcitriol): did not appear to provide a significant protective effect | protective effect against gemcitabine (HEKa cells [3]; 0.1 μg/mL calcitriol): mild protective effect | protective effect against irinotecan (HEKa cells [3]; 0.1 μg/mL calcitriol): positive protective effect | protective effect against paclitaxel (Paxlitaxol) (HEKa cells [3]; 0.1 μg/mL calcitriol): some protective effects | protective effect against tamoxifen (HEKa cells [3]; 0.1 μg/mL calcitriol): weak | HEKa growth after prolonged calcitriol exposure (HEKa cells [3]; 0.1 μg/mL calcitriol for two cell passages): stopped growing | protection against carboplatin (HEKa cells [3]; [6]): moderate level of protection | protection against cisplatin (HEKa cells [3]; [6]): moderate level of protection | protective effect against kinase inhibitor drugs (erlotinib, gefitinib, sorafenib, dasatinib, staurosporin) (HEKa cells [3]; 0.1 μg/mL calcitriol, low drug dosage levels): protected the HEKa cells | interaction (synergy) between calcitriol and commercial drugs (HEKa cells [3]; 0.1 μg/mL calcitriol, 5-FU, doxorubicin, tamoxifen, irinotecan, paclitaxel, carboplatin, staurosporin, vincristine, cisplatin, erlotinib, gemcitabine, imatinib, gefitinib, sorafenib, dasatinib): no interaction | chemoprotective effect: pre-treatment group vs simultaneous treatment group (HEKa cells [3]; 0.1 μg/mL calcitriol, doxorubicin, cisplatin, erlotinib): nearly identical | stimulation of HEKa cell growth (HEKa cells [3]; lowest levels of calcitriol (tested range about 0.008-2.0 μg/mL)): 10-20% | calcitriol concentration at which HEKa cell growth is inhibited (HEKa cells [3]; tested range about 0.008-2.0 μg/mL): ≥ 1.0 µg/mL | effect of calcitriol on cell growth (SKMEL-28 (melanoma); SKMEL-28): no significant growth promoting or growth inhibiting effects | effect of calcitriol on the cytotoxic effect of Doxorubicin (SKMEL-28 (melanoma); SKMEL-28): did not appear to appreciably alter | 5-FU ED50 curve with vs without calcitriol (SKMEL-28 (melanoma); SKMEL-28, 0.1 μg/mL calcitriol): not significantly different | protection from etoposide-induced alopecia ([4]; 0.1 μg of calcitriol topically for 6 hours, daily for 6 days): partial localized protection | protection from cyclophosphamide-induced alopecia ([4]; 0.3 μg calcitriol topically): full body protection | protection from etoposide-induced alopecia ([4]; 0.3 μg calcitriol topically): total body protection | protection from CTX-doxorubicin combination chemotherapy-induced alopecia [4, 7]: protects | protection from CTX-induced alopecia in rats injected with MIAC51 [4, 7]: protects | protection from cyclophosphamide (CTX)-induced alopecia [4, 7]: protects | protection from CIA in rats receiving etoposide ([4]; Sprague Dawley rats, topical formulation, two doses): protects from chemotherapy-induced alopecia (CIA) in a dose-dependent manner | protection against CIA in neonatal rat ([4]; about 0.2 μg (100 μL of 2 μg/mL topical solution)): protective | daily application prior to commencement of chemotherapy required to see any protective effect ([4]; rat model): at least four days | protection with 5 days of application prior to chemotherapy ([4]; rat model): moderate protection | protective effect in tumor-bearing female mice (BALB/c mice; EMT-6, vs female mice without tumor and tumor-bearing males): more efficient protective effect | protective effect in tumor-bearing male mice (BALB/c mice; EMT-6 tumor cells): diminished | degree of CIA (BALB/c mice; male BALB/c mice, topical 5 days prior to cyclophosphamide): significantly reduced the degree of CIA in a dose-dependent manner | apoptosis staining pattern vs unexposed mice (BALB/c mice; mouse, in vivo): no significant differences in apoptosis staining pattern | dermal irritation [5]: no dermal irritation | epidermal / dermal penetration [5]: excellent epidermal penetration without substantial dermal penetration

— US20230302022A1, “PREVENTING OR MITIGATING CHEMOTHERAPY INDUCED ALOPECIA USING VITAMIN D” (priority 2016, published 2023)
